SMILES strings stand for the structures. Some results are limits rather than exact numbers.

As usually defined, the half-life is the time in which the quantity being followed falls by half. A higher half-life goes with slow decline.

Data set [1] can be described thus: Liver S9 stability (human liver S9). The data set is classed as in vitro ADME. Particulars: for half-life at 1 µM: human liver S9, 37° C.; for Formation of EFdA at 30 min: human liver S9, 30 min. On the procedure:
Add 600 μL/well stop solution (cold in 4° C., including 100 ng/mL Tolbutamide/100 ng/mL Labetalol) to terminate the TO plate, then put it on ice. Dispense 840 μL/well S9 solution to 96-well plate as reservoir according to plate map. Then add 100 μL/well to every plate by Apricot. Incubate S9 solution and compound at 37° C. for about 10 min except NCF60 and TO. After adding S9 solution and 98μ LPB buffer to NCF60, incubate at 37° C. without pre-warming, start timer 1. After 60 min, add 600 μL/well stop solution to terminate the reaction. After pre-warming, dispense 760 μL/well cofactor solution to 96-well plate as reservoir according to plate map. Then add 98 μL/well to every plate by Apricot to start reaction. Incubate at 37° C., start timer 2, Add 600 μL/well stop solution (cold in 4° C., including 100 ng/mL Tolbutamide and Labetalol) to terminate the reaction. Samples are centrifuged at 4000 rpm for 20 min. While centrifuging, load 8× new 96-well plate with 300 μL HPLC water, then transfer 100 μL supernatant, mix with water for LC/MS/MS, transferred to Bioanalytical Services for LC-MS/MS analysis. Use equation of first order kinetics [NT]1/2 and CL: Equation of first order kinetics: [formula] [formula] [formula] [formula]

Data set [2] is described as follows: Plasma stability (human plasma). Particulars: for Formation of EFdA at 30 min: human plasma; for half-life at 2 µM: human, pH 7.4. The protocol:
The pooled frozen plasma was thawed in a water bath at 37° C. prior to experiment. Plasma was centrifuged at 4000 rpm for 5 min and the clots were removed if any. The pH will be adjusted to 7.4±0.1 if required.
Preparation of test compounds and positive control (propantheline bromide): 1 mM intermediate solution was prepared by diluting 10 μL of the stock solution with 90 μL MeOH; 1 mM intermediate of positive control Propantheline was prepared by diluting 10 μL of the stock solution with 90 μL ultrapure water. 100 μM dosing solution was prepared by diluting 20 μL of the intermediate solution (1 mM) with 180 μL MeOH. 98 μL of blank plasma was spiked with 2 μL of dosing solution (100 μM) to achieve 2 μM of the final concentration in duplicate and samples were incubated at 37° C. in a water bath. […] Centrifuged sample plates at 4,000 rpm for 10 min. An aliquot of supernatant (100 μL) was transferred from each well to another plates.

Consider `C#C[C@@]12COC(=O)OCCCCCC(=O)OC1C[C@H](n1cnc3c(N)nc(F)nc31)O2` (stereo in doubt) [Compound 29, (1R,13R,15R)-15-(6-amino-2-fluoro-9H-purin-9-yl)-13-ethynyl-2,9,11,14-tetraoxabicyclo[11.3.0]hexadecane-3,10-dione], for which, in data set [1], the half-life at 1 µM is less than 50 min and the “Formation of EFdA at 30 min” value is on record as “Yes”. For the same compound, the “Formation of EFdA at 30 min” value in data set [2] is recorded as “Yes”. The compound further returned a half-life at 2 µM in data set [2] (pooled plasma) of less than 50 min.
On to `C#C[C@@]12COC(=O)OCC3CCCCC3COC(=O)OC1C[C@H](n1cnc3c(N)nc(F)nc31)O2` (stereo in doubt) [Compound 30, (6R,8R,10R)-8-(6-amino-2-fluoro-9H-purin-9-yl)-10-ethynyl-3,5,9,12,14-pentaoxatricyclo[14.4.0.06,10]icosane-4,13-dione], for which, in data set [1], the half-life at 1 µM was less than 50 min and the “Formation of EFdA at 30 min” value was “Yes”. Also, the “Formation of EFdA at 30 min” value in data set [2] was “No”. In data set [2] (pooled plasma), this compound came in with a half-life at 2 µM of 50 to 200 min.
The corresponding values for `C#C[C@]1(COC(=O)CC23CC4CC(CC(C4)C2)C3)O[C@@H](n2cnc3c(N)nc(F)nc32)C[C@@H]1O` [Compound 1, ((2R,3S,5R)-5-(6-amino-2-fluoro-9H-purin-9-yl)-2-ethynyl-3-hydroxy-tetrahydrofuran-2-yl)methyl 2-(1-adamantyl) acetate] are less than 50 min, “Yes”, “No” and greater than 200 min.
The like results for `C#C[C@]1(COC(=O)C23CC4CC(CC(C4)C2)C3)O[C@@H](n2cnc3c(N)nc(F)nc32)C[C@@H]1O` [Compound 3, ((2R, 3S, 5R)-5-(6-amino-2-fluoro-9H-purin-9-yl)-2-ethynyl-3-hydroxy-tetrahydrofuran-2-yl)methyl adamantane-1-carboxylate] were, in that order, less than 50 min, “Yes”, “No” and less than 50 min.
Consider `C#C[C@]1(CO)O[C@@H](n2cnc3c(N)nc(F)nc32)C[C@@H]1OC(=O)OCCCC12CC3CC(CC(C3)C1)C2` [Compound 11, ((2R,3S,5R)-5-(6-amino-2-fluoro-9H-purin-9-yl)-2-ethynyl-2-(hydroxymethyl)tetrahydrofuran-3-yl) 3-(1-adamantyl)propyl carbonate], for which, in data set [1], the half-life at 1 µM is less than 50 min and the “Formation of EFdA at 30 min” value was “Yes”.
For the compound `C#C[C@]1(CO)O[C@@H](n2cnc3c(N)nc(F)nc32)C[C@@H]1OC(=O)OCCCCC12CC3CC(CC(C3)C1)C2` [Compound 13, ((2R,3S,5R)-5-(6-amino-2-fluoro-9H-purin-9-yl)-2-ethynyl-2-(hydroxymethyl)tetrahydrofuran-3-yl) 4-(1-adamantyl)butyl carbonate], in data set [1], the half-life at 1 µM was less than 50 min and the “Formation of EFdA at 30 min” value is “Yes”.
With `C#C[C@@]12COC(=O)OCCCOC(=O)O[C@H]1C[C@H](n1cnc3c(N)nc(F)nc31)O2` [Compound 16, (10aR,12R,13aS)-12-(6-amino-2-fluoro-9H-purin-9-yl)-10a-ethynylhexahydro-4H,10H-furo[3,2-d][1,3,7,9]tetraoxacyclododecine-2,8-dione], the “Formation of EFdA at 30 min” value in data set [2] was “Yes”. Moreover, in data set [2] (plasma), the half-life at 2 µM was in the range of 50 to 200 min.
As for `C#C[C@]1(COC(=O)OCC23CC4CC(CC(C4)C2)C3)O[C@@H](n2cnc3c(N)nc(F)nc32)C[C@@H]1OC(=O)C(C)C` [Compound 20, ((2R,3S,5R)-2-(((((1-adamantyl)methoxy)carbonyl)oxy)methyl)-5-(6-amino-2-fluoro-9H-purin-9-yl)-2-ethynyltetrahydrofuran-3-yl) isobutyrate], in data set [1], the half-life at 1 µM was less than 50 min and the “Formation of EFdA at 30 min” value is “Yes”.

The record behind these values is US11793827B2, “Adenosine derivative and pharmaceutical composition comprising the same” (Brii Biosciences, Inc., priority 2021, dated 2023).
